Literature values in patent US20260174730A1, “A COMPOSITION FOR TREATING PARKINSON'S DISEASE” (COUNCIL OF SCIENTIFIC & INDUSTRIAL RESEARCH, priority 2023, published 2026).

System: oxygen-glucose deprivation in vitro

Q: With `C/C(=C\COc1ccc2ccc(=O)oc2c1)CC[C@@H]1C(C)(C)[C@H]2CC[C@]1(C)O2` [farnesiferol C] as the compound, how does the neuroprotective activity read?
A: moderate neuroprotective activity
